Test results as given in patent US6737383B1, “Herbicidal oxadiazolidines” (priority 1999, dated 2004).

How the values were obtained:
bedstraw = assay: Test B pre/postemergence bedstraw; type: in vivo, Galium aparine; conditions: for Bedstraw plant response rating: Rate 62 g/ha
In short: (§1)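 Test chemicals in a non-phytotoxic solvent mixture with surfactant were sprayed preemergence onto planted seeds and postemergence onto plants 2 to 18 cm tall (1- to 4-leaf stage). After twelve to sixteen days in a greenhouse, injury was visually rated against untreated controls from 0 (no effect) to 10 (complete control).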

blackgrass = assay: Test B pre/postemergence blackgrass; type: in vivo, Alopecurus myosuroides
In short: as §1

surinam grass = assay: Test B pre/postemergence surinam grass; type: in vivo, Brachiaria decumbens
In short: as §1

cocklebur = assay: Test B pre/postemergence cocklebur; type: in vivo, Xanthium strumarium
In short: as §1

corn = assay: Test B pre/postemergence corn; type: in vivo, Zea mays
In short: as §1

crabgrass = assay: Test B pre/postemergence crabgrass; type: in vivo, Digitaria sanguinalis
In short: as §1

giant foxtail = assay: Test B pre/postemergence giant foxtail; type: in vivo, Setaria faberii
In short: as §1

morningglory = assay: Test B pre/postemergence morningglory; type: in vivo, Ipomoea hederacea
In short: as §1

pigweed = assay: Test B pre/postemergence pigweed; type: in vivo, Amaranthus retroflexus
In short: as §1

rape = assay: Test B pre/postemergence rape; type: in vivo, Brassica napus; conditions: for Rape plant response rating: Rate 62 g/ha
In short: as §1

soybean = assay: Test B pre/postemergence soybean; type: in vivo, Glycine max
In short: as §1

sugar beet = assay: Test B pre/postemergence sugar beet; type: in vivo, Beta vulgaris
In short: as §1

velvetleaf = assay: Test B pre/postemergence velvetleaf; type: in vivo, Abutilon theophrasti
In short: as §1

wheat = assay: Test B pre/postemergence wheat; type: in vivo, Triticum aestivum
In short: as §1

wild oat = assay: Test B pre/postemergence wild oat; type: in vivo, Avena fatua
In short: as §1

purple nutsedge = assay: Test B pre/postemergence purple nutsedge; type: in vivo, Cyperus rotundus
In short: as §1

rice = assay: Test B flood test rice; type: in vivo, Oryza sativa
In short: (§2)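 Plants were grown to the 2-leaf stage before treatment with test chemical, then held in a greenhouse for twelve to sixteen days. Injury was visually rated against untreated controls on a 0–10 scale, where 0 is no effect and 10 is complete control.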

smallflower flatsedge = assay: Test B flood test smallflower flatsedge; type: in vivo, Cyperus difformis
In short: as §2

duck salad = assay: Test B flood test duck salad; type: in vivo, Heteranthera limosa
In short: as §2

bamyardgrass = assay: Test B flood test barnyardgrass; type: in vivo, Echinochloa crus-galli
In short: as §2

[1] = Postemergence, Rate 125 g/ha, scale 0 to 10, 0 is no effect, 10 is complete control
[2] = Preemergence, scale of 0 to 10 where 0 is no effect and 10 is complete control
[3] = Postemergence, scale 0 to 10 (0 no effect, 10 complete control)
[4] = Preemergence, Rate 62 g/ha, scale of 0 to 10 where 0 is no effect and 10 is complete control
[5] = Preemergence, Rate 250 g/ha, scale of 0 to 10 where 0 is no effect and 10 is complete control
[6] = Preemergence, Rate 500 g/ha, scale of 0 to 10 where 0 is no effect and 10 is complete control
[7] = Rate 62 g/ha, Postemergence, scale 0 to 10 (0 no effect, 10 complete control)
[8] = Rate 250 g/ha, Postemergence, scale of 0 to 10 where 0 is no effect and 10 is complete control
[9] = Rate 500 g/ha, Postemergence, scale 0 to 10, 0 no effect, 10 complete control
[10] = Rate 62 g/ha, headed Pre-emergence (flood test species), scale 0 to 10 (0 no effect, 10 complete control)
[11] = Rate 125 g/ha, Pre-emergence, flood test species, scale 0 to 10 where 0 is no effect and 10 is complete control
[12] = Rate 250 g/ha, Pre-emergence, flood-test species, scale 0 to 10, 0 is no effect, 10 is complete control
[13] = Rate 500 g/ha, Pre-emergence, flood test species, scale 0 to 10 (0 no effect, 10 complete control)

## CC(C)N(C(=O)n1oc(=O)n(-c2ccc3ccccc3c2)c1=O)c1ccc(F)cc1 [Compound 329]
bedstraw; [1]
  Plant response rating, Bedstraw: 0
bedstraw; [2]
  Bedstraw plant response rating: 0
bedstraw; Preemergence, Rate 125 g/ha
  Bedstraw plant response rating (0 to 10 scale): 0
bedstraw; [3]
  Bedstraw plant response rating: 0
blackgrass; [1]
  Plant response rating, Blackgrass: 0
blackgrass; [4]
  Blackgrass plant response rating: 0
blackgrass; Preemergence, Rate 125 g/ha
  Blackgrass plant response rating (0 to 10 scale): 0
blackgrass; [5]
  Blackgrass plant response rating: 0
blackgrass; [6]
  Blackgrass plant response rating: 0
blackgrass; [7]
  Blackgrass plant response rating: 0
blackgrass; [8]
  Plant response rating, Blackgrass: 0
blackgrass; [9]
  Plant response rating, Blackgrass: 0
Surinam grass; [1]
  Plant response rating, B. signalgrass: 0
Surinam grass; [4]
  B. signalgrass plant response rating: 0
Surinam grass; Preemergence, Rate 125 g/ha
  B. signalgrass plant response rating (0 to 10 scale, 0 is no effect, 10 is complete control): 0
Surinam grass; [5]
  B. signalgrass plant response rating: 0
Surinam grass; [6]
  B. signalgrass plant response rating: 0
Surinam grass; [7]
  B. signalgrass plant response rating: 0
Surinam grass; [8]
  Plant response rating, B. signalgrass: 0
Surinam grass; [9]
  Plant response rating, B. signalgrass: 0
cocklebur; [1]
  Plant response rating, Cocklebur: 0
cocklebur; [4]
  Cocklebur plant response rating: 0
cocklebur; Preemergence, Rate 125 g/ha
  Cocklebur plant response rating (0 to 10 scale): 0
cocklebur; [5]
  Cocklebur plant response rating: 0
cocklebur; [6]
  Cocklebur plant response rating: 0
cocklebur; [7]
  Cocklebur plant response rating: 0
cocklebur; [9]
  Plant response rating, Cocklebur: 4
corn; [1]
  Plant response rating, Corn: 0
corn; [4]
  Corn plant response rating: 0
corn; Preemergence, Rate 125 g/ha
  Corn plant response rating (0 to 10 scale): 0
corn; [5]
  Corn plant response rating: 0
corn; [6]
  Corn plant response rating: 0
corn; [7]
  Corn plant response rating: 0
corn; [9]
  Plant response rating, Corn: 0
crabgrass; [1]
  Plant response rating, Crabgrass: 0
crabgrass; [4]
  Crabgrass plant response rating: 0
crabgrass; Preemergence, Rate 125 g/ha
  Crabgrass plant response rating (0 to 10 scale): 0
crabgrass; [5]
  Crabgrass plant response rating: 0
crabgrass; [6]
  Crabgrass plant response rating: 3
crabgrass; [7]
  Crabgrass plant response rating: 0
crabgrass; [9]
  Plant response rating, Crabgrass: 0
Giant foxtail; [1]
  Plant response rating, Giant foxtail: 0
Giant foxtail; [4]
  Giant foxtail plant response rating: 0
Giant foxtail; Preemergence, Rate 125 g/ha
  Giant foxtail plant response rating (0 to 10 scale): 0
Giant foxtail; [5]
  Giant foxtail plant response rating: 0
Giant foxtail; [6]
  Giant foxtail plant response rating: 3
Giant foxtail; [7]
  Giant foxtail plant response rating: 0
Giant foxtail; [9]
  Plant response rating, Giant foxtail: 0
morningglory; [1]
  Plant response rating, Morningglory: 0
morningglory; [4]
  Morningglory plant response rating: 0
morningglory; Preemergence, Rate 125 g/ha
  Morningglory plant response rating (0 to 10 scale): 0
morningglory; [5]
  Morningglory plant response rating: 0
morningglory; [6]
  Morningglory plant response rating: 0
morningglory; [7]
  Morningglory plant response rating: 0
morningglory; [9]
  Plant response rating, Morningglory: 0
pigweed; [1]
  Plant response rating, Redroot pigweed: 0
pigweed; [4]
  Redroot pigweed plant response rating: 0
pigweed; Preemergence, Rate 125 g/ha
  Redroot pigweed plant response rating (0 to 10 scale): 0
pigweed; [5]
  Redroot pigweed plant response rating: 0
pigweed; [6]
  Redroot pigweed plant response rating: 0
pigweed; [7]
  Redroot pigweed plant response rating: 0
pigweed; [9]
  Plant response rating, Redroot pigweed: 0
rape; [1]
  Plant response rating, Rape: 0
rape; [2]
  Rape plant response rating: 0
rape; Preemergence, Rate 125 g/ha
  Rape plant response rating (0 to 10 scale): 0
rape; [3]
  Rape plant response rating: 0
rape; [9]
  Plant response rating, Rape: 0
soybean; [1]
  Plant response rating, Soybean: 1
soybean; [4]
  Soybean plant response rating: 0
soybean; Preemergence, Rate 125 g/ha
  Soybean plant response rating (0 to 10 scale): 0
soybean; [5]
  Soybean plant response rating: 0
soybean; [6]
  Soybean plant response rating: 0
soybean; [7]
  Soybean plant response rating: 1
soybean; [9]
  Plant response rating, Soybean: 2
Sugar beet; [1]
  Plant response rating, Sugarbeets: 0
Sugar beet; [4]
  Sugarbeets plant response rating: 0
Sugar beet; Preemergence, Rate 125 g/ha
  Sugarbeets plant response rating (0 to 10 scale): 0
Sugar beet; [5]
  Sugarbeets plant response rating: 0
Sugar beet; [6]
  Sugarbeets plant response rating: 0
Sugar beet; [7]
  Sugarbeets plant response rating: 0
Sugar beet; [9]
  Plant response rating, Sugarbeets: 0
velvetleaf; [1]
  Plant response rating, Velvetleaf: 0
velvetleaf; [4]
  Velvetleaf plant response rating: 0
velvetleaf; Preemergence, Rate 125 g/ha
  Velvetleaf plant response rating (0 to 10 scale): 0
velvetleaf; [5]
  Velvetleaf plant response rating: 0
velvetleaf; [6]
  Velvetleaf plant response rating: 0
velvetleaf; [7]
  Velvetleaf plant response rating: 0
velvetleaf; [9]
  Plant response rating, Velvetleaf: 0
wheat; [1]
  Plant response rating, Wheat: 0
wheat; [4]
  Wheat plant response rating: 0
wheat; Preemergence, Rate 125 g/ha
  Wheat plant response rating (0 to 10 scale): 0
wheat; [5]
  Wheat plant response rating: 0
wheat; [6]
  Wheat plant response rating: 0
wheat; [7]
  Wheat plant response rating: 0
wheat; [9]
  Plant response rating, Wheat: 0
Wild oat; [1]
  Plant response rating, Wild oats: 0
Wild oat; [4]
  Wild oats plant response rating: 0
Wild oat; Preemergence, Rate 125 g/ha
  Wild oats plant response rating (0 to 10 scale): 0
Wild oat; [5]
  Wild oats plant response rating: 0
Wild oat; [6]
  Wild oats plant response rating: 0
Wild oat; [7]
  Wild oats plant response rating: 0
Wild oat; [9]
  Plant response rating, Wild oats: 0
Purple nutsedge; [1]
  Plant response rating, Nutsedge: 0
Purple nutsedge; [4]
  Nutsedge plant response rating: 0
Purple nutsedge; [5]
  Nutsedge plant response rating: 0
Purple nutsedge; [7]
  Nutsedge plant response rating: 0
Purple nutsedge; [9]
  Plant response rating, Nutsedge: 0
rice; [10]
  Rice plant response rating: 0
rice; [11]
  Rice plant response rating: 0
rice; [12]
  Rice plant response rating: 0
rice; [13]
  Rice plant response rating: 0
Smallflower flatsedge; [10]
  S. Flatsedge plant response rating: 0
Smallflower flatsedge; [11]
  S. Flatsedge plant response rating: 0
Smallflower flatsedge; [12]
  S. Flatsedge plant response rating: 0
Smallflower flatsedge; [13]
  S. Flatsedge plant response rating: 0
Duck salad; [10]
  Ducksalad plant response rating: 0
Duck salad; [11]
  Ducksalad plant response rating: 0
Duck salad; [12]
  Ducksalad plant response rating: 0
Duck salad; [13]
  Ducksalad plant response rating: 0
bamyardgrass; [10]
  Barnyardgrass plant response rating: 0
bamyardgrass; [11]
  Barnyardgrass plant response rating: 0
bamyardgrass; [12]
  Barnyardgrass plant response rating: 0
bamyardgrass; [13]
  Barnyardgrass plant response rating: 0
